Results: ChEMBL document CHEMBL4433232, “Tool inhibitors and assays to interrogate the biology of the TRAF2 and NCK interacting kinase” (Bioorg Med Chem Lett, 2019)
Calls of active or inactive are those of the source. No cut-off for these calls is given here.

Key:
[1] = target: T1, TRAF2 and NCK-interacting protein kinase (Homo sapiens, UniProt Q9UKE5); experiment: Inhibition of human full length TNIK in HEK293 cells co-transfected with full length SMAD1 incubated for 2 hrs by ELISA; assay type: cell-based
Target sequence in this assay (Q9UKE5 whole entry): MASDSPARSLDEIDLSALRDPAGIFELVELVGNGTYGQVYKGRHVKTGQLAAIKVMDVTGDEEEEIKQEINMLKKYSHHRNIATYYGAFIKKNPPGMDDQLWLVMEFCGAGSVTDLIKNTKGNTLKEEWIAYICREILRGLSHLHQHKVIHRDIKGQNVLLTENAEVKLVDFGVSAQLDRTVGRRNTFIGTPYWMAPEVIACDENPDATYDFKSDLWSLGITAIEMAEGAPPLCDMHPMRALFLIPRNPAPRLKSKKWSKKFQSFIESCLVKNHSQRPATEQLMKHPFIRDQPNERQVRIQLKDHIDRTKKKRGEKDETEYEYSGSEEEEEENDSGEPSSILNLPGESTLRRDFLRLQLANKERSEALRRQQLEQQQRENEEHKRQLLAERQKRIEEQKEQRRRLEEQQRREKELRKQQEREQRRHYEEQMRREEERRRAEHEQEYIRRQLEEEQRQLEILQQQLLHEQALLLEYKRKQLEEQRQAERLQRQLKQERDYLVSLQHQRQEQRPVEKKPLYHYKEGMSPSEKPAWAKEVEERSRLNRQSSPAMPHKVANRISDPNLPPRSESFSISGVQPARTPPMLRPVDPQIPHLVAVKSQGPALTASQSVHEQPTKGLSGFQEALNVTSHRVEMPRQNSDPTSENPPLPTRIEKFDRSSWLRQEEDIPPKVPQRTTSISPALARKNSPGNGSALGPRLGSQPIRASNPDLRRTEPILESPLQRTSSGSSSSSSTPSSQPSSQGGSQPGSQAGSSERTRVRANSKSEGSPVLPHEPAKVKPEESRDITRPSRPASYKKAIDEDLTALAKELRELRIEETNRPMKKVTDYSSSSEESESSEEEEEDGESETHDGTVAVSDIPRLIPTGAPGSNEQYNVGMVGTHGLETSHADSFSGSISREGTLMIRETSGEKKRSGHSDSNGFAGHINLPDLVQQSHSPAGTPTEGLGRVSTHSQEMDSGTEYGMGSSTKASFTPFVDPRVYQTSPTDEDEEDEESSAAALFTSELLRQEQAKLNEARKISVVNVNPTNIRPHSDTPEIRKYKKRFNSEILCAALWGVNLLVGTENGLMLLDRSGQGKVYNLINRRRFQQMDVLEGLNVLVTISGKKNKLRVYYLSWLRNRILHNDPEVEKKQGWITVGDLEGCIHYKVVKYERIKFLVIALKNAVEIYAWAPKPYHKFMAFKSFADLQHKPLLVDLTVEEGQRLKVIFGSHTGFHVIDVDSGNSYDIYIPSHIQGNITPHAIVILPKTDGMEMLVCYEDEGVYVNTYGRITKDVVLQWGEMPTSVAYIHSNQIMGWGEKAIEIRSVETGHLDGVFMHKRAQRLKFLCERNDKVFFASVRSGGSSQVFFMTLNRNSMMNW

[2] = target: T1, TRAF2 and NCK-interacting protein kinase; experiment: Inhibition of human TNIK in human iPSC derived neuronal progenitor cells assessed as reduction in motif phosphorylation at 10 uM after 6 hrs with presence of okadaic acid by Western blot analysis
Target sequence in this assay (Q9UKE5 whole entry, looked up): as the sequence (Q9UKE5 whole entry) above

[3] = target: T2, Misshapen-like kinase 1 (Homo sapiens, UniProt Q8N4C8); experiment: Inhibition of human 6His-TEV-Avi-MINK1(1 to 328)-GNS expressed in baculovirus-infected sf21 cells using LRRKtide as substrate preincubated for 30 mins followed by substrate addition and measured after 75 to 90 mins by ADP-Glo Reagent based method
T2 sequence (Q8N4C8 whole entry): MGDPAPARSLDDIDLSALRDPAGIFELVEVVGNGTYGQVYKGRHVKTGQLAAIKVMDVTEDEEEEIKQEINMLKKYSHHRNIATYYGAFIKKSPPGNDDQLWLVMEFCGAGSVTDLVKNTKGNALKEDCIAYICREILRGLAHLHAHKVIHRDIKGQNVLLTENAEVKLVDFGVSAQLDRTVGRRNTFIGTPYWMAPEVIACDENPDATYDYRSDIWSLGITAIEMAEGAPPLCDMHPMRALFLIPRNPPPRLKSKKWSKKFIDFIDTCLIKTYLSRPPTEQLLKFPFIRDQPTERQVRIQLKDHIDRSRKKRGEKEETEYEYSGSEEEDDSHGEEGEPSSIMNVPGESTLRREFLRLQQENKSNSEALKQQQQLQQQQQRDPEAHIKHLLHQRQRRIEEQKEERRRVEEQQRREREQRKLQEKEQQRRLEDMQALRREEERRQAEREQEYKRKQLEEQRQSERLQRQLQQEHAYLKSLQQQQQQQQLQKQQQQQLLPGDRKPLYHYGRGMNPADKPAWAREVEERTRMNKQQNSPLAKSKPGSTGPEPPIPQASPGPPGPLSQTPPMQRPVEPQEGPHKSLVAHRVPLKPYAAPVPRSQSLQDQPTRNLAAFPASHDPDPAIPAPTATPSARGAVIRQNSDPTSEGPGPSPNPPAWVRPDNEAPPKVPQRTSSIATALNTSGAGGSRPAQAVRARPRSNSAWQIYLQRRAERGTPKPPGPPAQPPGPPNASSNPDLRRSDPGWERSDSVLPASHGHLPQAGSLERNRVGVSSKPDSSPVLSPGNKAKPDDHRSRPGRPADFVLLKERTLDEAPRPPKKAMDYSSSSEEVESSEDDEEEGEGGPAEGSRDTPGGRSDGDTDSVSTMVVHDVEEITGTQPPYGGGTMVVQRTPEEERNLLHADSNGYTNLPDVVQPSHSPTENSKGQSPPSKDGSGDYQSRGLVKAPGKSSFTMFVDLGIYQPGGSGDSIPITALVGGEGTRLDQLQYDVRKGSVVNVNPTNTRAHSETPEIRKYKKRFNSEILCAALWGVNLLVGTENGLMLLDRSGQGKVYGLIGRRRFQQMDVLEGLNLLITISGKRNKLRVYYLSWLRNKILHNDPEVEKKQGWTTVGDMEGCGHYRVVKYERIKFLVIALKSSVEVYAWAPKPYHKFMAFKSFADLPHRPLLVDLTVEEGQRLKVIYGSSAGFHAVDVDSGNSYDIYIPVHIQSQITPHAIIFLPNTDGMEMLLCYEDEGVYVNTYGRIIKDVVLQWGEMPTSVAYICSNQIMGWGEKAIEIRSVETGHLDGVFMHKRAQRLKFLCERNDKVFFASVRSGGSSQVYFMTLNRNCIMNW

[4] = target: T1, TRAF2 and NCK-interacting protein kinase; experiment: Inhibition of human 6His-TEV-TNIK(1 to 325) expressed in baculovirus-infected sf21 cells using LRRKtide as substrate preincubated for 30 mins followed by substrate addition and measured after 75 to 90 mins by ADP-Glo Reagent based method
Target sequence in this assay (Q9UKE5 whole entry): as the sequence (Q9UKE5 whole entry) above

[5] = target: T3, Mitogen-activated protein kinase kinase kinase kinase 4 (Homo sapiens, UniProt O95819); experiment: Inhibition of human 6His-TEV-SHM-MAP4K4(2 to 328)-GNS expressed in baculovirus-infected sf21 cells using LRRKtide as substrate preincubated for 30 mins followed by substrate addition and measured after 75 to 90 mins by ADP-Glo Reagent based method
Target sequence in this assay (O95819 whole entry): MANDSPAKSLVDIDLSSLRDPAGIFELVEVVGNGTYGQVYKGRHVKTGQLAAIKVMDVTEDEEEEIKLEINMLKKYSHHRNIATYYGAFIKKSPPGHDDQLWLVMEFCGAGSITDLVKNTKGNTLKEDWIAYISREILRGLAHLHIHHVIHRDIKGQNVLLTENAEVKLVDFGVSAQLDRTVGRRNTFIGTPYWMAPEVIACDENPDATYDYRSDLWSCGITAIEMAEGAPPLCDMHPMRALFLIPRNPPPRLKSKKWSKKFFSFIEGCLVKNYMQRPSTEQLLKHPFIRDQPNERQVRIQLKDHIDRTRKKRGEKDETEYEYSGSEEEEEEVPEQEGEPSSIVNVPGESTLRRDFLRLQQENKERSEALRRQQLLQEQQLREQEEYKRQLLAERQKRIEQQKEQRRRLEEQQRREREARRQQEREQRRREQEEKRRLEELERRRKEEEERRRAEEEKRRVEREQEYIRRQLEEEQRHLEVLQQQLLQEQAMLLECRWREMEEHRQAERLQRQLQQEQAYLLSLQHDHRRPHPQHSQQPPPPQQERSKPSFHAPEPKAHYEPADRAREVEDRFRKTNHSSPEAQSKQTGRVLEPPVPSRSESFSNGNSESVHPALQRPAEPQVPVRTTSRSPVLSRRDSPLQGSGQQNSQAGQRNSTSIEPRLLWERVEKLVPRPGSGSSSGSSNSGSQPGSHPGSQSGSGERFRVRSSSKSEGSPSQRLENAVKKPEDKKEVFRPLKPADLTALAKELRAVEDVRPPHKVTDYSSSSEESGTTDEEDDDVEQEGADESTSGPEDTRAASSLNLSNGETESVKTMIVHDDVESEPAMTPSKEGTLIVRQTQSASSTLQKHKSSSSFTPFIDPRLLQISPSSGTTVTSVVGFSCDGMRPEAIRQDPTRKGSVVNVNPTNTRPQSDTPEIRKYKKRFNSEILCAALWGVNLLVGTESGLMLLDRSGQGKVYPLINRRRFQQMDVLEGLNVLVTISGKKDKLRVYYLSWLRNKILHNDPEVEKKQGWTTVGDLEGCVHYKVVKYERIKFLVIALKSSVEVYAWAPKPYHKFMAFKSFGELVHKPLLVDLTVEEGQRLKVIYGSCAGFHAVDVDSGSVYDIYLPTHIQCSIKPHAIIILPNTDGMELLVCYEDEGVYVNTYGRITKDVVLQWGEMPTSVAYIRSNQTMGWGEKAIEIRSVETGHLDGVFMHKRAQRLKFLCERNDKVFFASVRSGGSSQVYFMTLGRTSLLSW

[6] = target: T1, TRAF2 and NCK-interacting protein kinase; experiment: Inhibition of human full length TNIK(1-1360)-G5-Avi-6His-Flag expressed in baculovirus-infected sf21 cells using His6-SMAD1 as substrate preincubated for 30 mins followed by substrate addition and measured after 120 mins by ADP-Glo Reagent based method
Target sequence in this assay (Q9UKE5 whole entry): as the sequence (Q9UKE5 whole entry) above

[7] = target: T3, Mitogen-activated protein kinase kinase kinase kinase 4; experiment: Inhibition of human full length MAP4K4(1-1239)-G5-Avi-6His-Flag expressed in baculovirus-infected sf21 cells using His6-SMAD1 as substrate preincubated for 30 mins followed by substrate addition and measured after 120 mins by ADP-Glo Reagent based method
Target sequence in this assay (O95819 whole entry): as the sequence (O95819 whole entry) above

[8] = target: T2, Misshapen-like kinase 1; experiment: Inhibition of human full length MINK1(1-1332)-G5-Avi-6His-Flag expressed in baculovirus-infected sf21 cells using His6-SMAD1 as substrate preincubated for 30 mins followed by substrate addition and measured after 120 mins by ADP-Glo Reagent based method
[9] = target: T1, TRAF2 and NCK-interacting protein kinase; experiment: Inhibition of human full length TNIK in HEK293 cells co-transfected with full length SMAD1 up to 30 uM incubated for 2 hrs by ELISA; assay type: cell-based
Target sequence in this assay (Q9UKE5 whole entry, looked up): as the sequence (Q9UKE5 whole entry) above

[10] = target: T3, Mitogen-activated protein kinase kinase kinase kinase 4; experiment: Inhibition of MAP4K4 (unknown origin) at 0.1 uM relative to control
[11] = target: AP2-associated protein kinase 1 (Homo sapiens) (UniProt Q2M2I8); experiment: Inhibition of AAK1 (unknown origin) at 0.1 uM relative to control
AP2-associated protein kinase 1 (Homo sapiens), sequence (Q2M2I8 whole entry, looked up): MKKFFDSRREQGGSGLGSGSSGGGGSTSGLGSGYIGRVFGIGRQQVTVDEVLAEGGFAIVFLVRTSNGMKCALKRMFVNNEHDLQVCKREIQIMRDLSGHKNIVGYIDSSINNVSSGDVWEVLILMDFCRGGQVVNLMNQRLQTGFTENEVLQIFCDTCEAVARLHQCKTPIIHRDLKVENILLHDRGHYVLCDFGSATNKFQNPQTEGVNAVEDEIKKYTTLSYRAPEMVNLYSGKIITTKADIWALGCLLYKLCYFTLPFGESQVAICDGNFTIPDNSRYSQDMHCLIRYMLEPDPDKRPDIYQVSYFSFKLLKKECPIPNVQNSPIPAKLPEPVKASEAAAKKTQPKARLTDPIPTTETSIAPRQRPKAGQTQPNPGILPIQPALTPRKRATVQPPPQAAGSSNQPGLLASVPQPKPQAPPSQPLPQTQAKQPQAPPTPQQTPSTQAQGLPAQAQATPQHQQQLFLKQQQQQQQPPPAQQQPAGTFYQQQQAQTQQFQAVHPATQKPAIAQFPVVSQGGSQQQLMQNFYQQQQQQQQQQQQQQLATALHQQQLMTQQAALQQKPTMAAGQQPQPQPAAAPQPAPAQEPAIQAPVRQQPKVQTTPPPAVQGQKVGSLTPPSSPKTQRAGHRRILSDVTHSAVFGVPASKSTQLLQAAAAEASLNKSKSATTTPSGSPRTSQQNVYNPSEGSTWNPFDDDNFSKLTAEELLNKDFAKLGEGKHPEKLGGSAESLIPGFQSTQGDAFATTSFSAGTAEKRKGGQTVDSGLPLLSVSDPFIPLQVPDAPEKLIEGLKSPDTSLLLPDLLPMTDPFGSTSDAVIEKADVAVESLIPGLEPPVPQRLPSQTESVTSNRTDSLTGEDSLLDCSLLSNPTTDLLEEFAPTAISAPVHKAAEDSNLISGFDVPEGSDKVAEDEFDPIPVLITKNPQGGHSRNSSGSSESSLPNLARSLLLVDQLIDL

[12] = target: T4, Interleukin-1 receptor-associated kinase 3 (Homo sapiens) (UniProt Q9Y616); experiment: Inhibition of IRAK3 (unknown origin) at 0.1 uM relative to control
T4 sequence (whole entry): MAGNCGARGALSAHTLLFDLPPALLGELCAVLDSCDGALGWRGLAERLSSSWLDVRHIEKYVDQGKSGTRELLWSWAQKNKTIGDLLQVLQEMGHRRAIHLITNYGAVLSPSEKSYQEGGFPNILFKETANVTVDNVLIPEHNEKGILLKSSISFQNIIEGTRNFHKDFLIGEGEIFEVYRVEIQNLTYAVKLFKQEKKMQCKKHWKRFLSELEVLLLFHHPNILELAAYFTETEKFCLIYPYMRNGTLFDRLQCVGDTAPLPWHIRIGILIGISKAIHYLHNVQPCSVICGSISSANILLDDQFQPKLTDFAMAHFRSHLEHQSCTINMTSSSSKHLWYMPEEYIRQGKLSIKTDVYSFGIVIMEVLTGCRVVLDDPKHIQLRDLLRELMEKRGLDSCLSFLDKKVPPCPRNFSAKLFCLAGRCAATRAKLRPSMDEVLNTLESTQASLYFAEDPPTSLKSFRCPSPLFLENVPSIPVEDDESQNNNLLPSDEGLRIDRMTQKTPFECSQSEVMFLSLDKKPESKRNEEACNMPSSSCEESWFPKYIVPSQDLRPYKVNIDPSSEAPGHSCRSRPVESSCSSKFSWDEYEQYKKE

[13] = target: T5, Myosin light chain kinase family member 4 (Homo sapiens) (UniProt Q86YV6); experiment: Inhibition of MYLK4 (unknown origin) at 0.1 uM relative to control
T5 sequence (whole entry): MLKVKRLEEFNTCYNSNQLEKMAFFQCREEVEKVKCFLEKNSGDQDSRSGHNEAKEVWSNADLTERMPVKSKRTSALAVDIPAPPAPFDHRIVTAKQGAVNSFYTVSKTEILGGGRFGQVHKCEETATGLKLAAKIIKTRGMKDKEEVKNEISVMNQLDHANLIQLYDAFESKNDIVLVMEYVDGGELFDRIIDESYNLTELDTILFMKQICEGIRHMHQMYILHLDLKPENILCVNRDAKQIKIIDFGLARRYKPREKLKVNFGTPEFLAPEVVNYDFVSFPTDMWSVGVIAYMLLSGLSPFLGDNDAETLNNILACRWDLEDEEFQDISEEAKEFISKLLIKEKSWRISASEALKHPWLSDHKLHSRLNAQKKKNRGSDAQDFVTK

[14] = target: Leucine-rich repeat serine/threonine-protein kinase 2 (Homo sapiens) (UniProt Q5S007); experiment: Inhibition of full length LRRK2 (unknown origin) at 0.1 uM relative to control
[15] = system: Saccharomyces cerevisiae; experiment: Inhibition of Saccharomyces cerevisiae CDC7/DBF4 at 0.1 uM relative to control
[16] = target: Leucine-rich repeat serine/threonine-protein kinase 2 (Homo sapiens) (UniProt Q5S007); experiment: Inhibition of LRRK2 (unknown origin) at 0.1 uM relative to control
[17] = target: Dual specificity protein kinase CLK4 (Homo sapiens) (UniProt Q9HAZ1); experiment: Inhibition of CLK4 (unknown origin) at 0.1 uM relative to control

Row | IC50 ([1]; read-out: pIC50 (converted)) [nM] | inhibition [2] | IC50 ([3]; read-out: pIC50 (converted)) [nM] | IC50 ([4]; read-out: pIC50 (converted)) [nM] | IC50 ([5]; read-out: pIC50 (converted)) [nM] | IC50 [6] [nM] | IC50 [7] [nM] | IC50 [8] [nM] | inhibition [9] | IC50 ([1]; read-out: IC50) [nM] | SMILES | other results
1 | > 31600 | inactive | 25100 | 25100 | 20000 | 25100 | 50100 | 63100 | inactive |  | CC(C)NC(=O)c1ccc(-c2cnc(N(C)C)c(-c3ccc(C#N)cc3)c2)cc1 | 
2 | > 31600 | inactive | 25100 | 15800 | 20000 | 5010 | 3980 | 3980 | inactive |  | Fc1cc(-c2ccc3ccncc3n2)ccn1 | 
3 | 1260 | Active | 126 | 79.4 | 12.6 | 39.8 | 25.1 | 39.8 |  | 930 | CC(C)NC(=O)c1ccc(-c2cnc(N)c(-c3ccc(C#N)cc3)c2)cc1 | 
4 |  |  | 200 | 158 | 158 |  |  |  |  |  | Nc1ncnc2ccc(-c3ccnc(F)c3)nc12 | IC50 ([3]; read-out: IC50): 150 to 200 nM; IC50 ([4]; read-out: IC50): 150 to 200 nM; IC50 ([5]; read-out: IC50): 150 to 200 nM
5 | > 31600 | inactive | 20000 | 3980 | 15800 | 3980 | 7940 | 6310 | inactive |  | CN(C)c1ncc(-c2ccc(O)cc2)cc1-c1ccc(S(C)(=O)=O)cc1 | 
6 |  | Active | 39.8 | 10 |  | 10 |  | 15.8 |  | 470 | CS(=O)(=O)c1ccc(-c2cc(-c3ccc(O)cc3)cnc2N)cc1 | 
7 |  | Active | 50.1 | 12.6 | 31.6 | 7.94 | 20 | 12.6 |  | 1130 | Nc1ncc(Br)c2ccc(-c3ccnc(F)c3)nc12 | inhibition [10]: 99%; inhibition [11]: 95%; inhibition [12]: 90%; inhibition [13]: 73%; inhibition [14]: 61%; inhibition [15]: 56%; inhibition [16]: 54%; inhibition [17]: 51%
8 |  |  | 200 | 126 | 158 |  |  |  |  |  | CC(C)(O)c1cnc(N)c2nc(-c3ccnc(F)c3)ccc12 | 
